Where two headings read alike, the source gives them in different places.
Tests used:
[1] = tested on: human colon cancer cells (HCT-116); assay: CCK-8 cell proliferation assay, HCT-116; assay type: cell-based; conditions: for inhibition at 5 µM: read-out: Inhibition rates (%) HCT-116; for IC50: read-out: IC50 ± SD HCT116
Description: (§1) Initially, the target compounds were evaluated for antiproliferative activities against human non-small-cell lung cancer cells (A549), human breast cancer cells (MDA-MB-231), human esophageal cancer cells (KYSE30), and human colon cancer cells (HCT-116) at 5 μM. All of them were tested by the CCK-8 assay using 5-Fu as the positive control.
(§2) To further assess the antitumor activities of synthesized compounds against human colon cancer cells, the effects of each synthesized compound on the viability of two additional human colon cancer cells (SW620, DLD1) were evaluated, and normal human colonic epithelial cells (NCM460) were used as a control. It is obvious that all the synthesized compounds display potential antitumor activities against HCT116, DLD1, and SW620 cells. […] In addition, for SW620, the activities of most optimized compounds were slightly stronger than that of 5-Fu.
(§3) HCT116, SW620, and DLD1 were purchased from American Type Culture Collection (ATCC). SW620 and DLD1 were cultured in Dulbecco’s Modified Eagles medium (Thermo), and HCT116 was cultured in McCoy’s 5A medium (Thermo). All media were supplemented with 10% fetal bovine serum (Thermo) and 1% penicillin/streptomycin. All the cells were passaged at approximately 80% confluency. Cells were tested for mycoplasma every two months, and only mycoplasma-negative cells were used
(§4) To investigate the effects of compounds on tumor cells’ proliferation, the cell proliferation assay was performed using the Cell Counting Kit-8 (#40203ES60, Yeasen, Shanghai, China). In brief, cells were seeded in a 96-well plate at 3 × 10^3 cells per well and cultured overnight. Then, the medium was replaced with fresh DMEM medium containing various concentrations of compounds or vehicle. After 48 h of incubation, the medium was exchanged with 100 μL of FBS-free DMEM medium supplemented with 10 μL of CCK8 added to each well and incubated at 37 °C for another 2 h. Absorbance at 450 nm was measured with a microplate reader (Thermo). The experiments were performed in triplicate. The mean ± SD values presented in the figures were calculated from three independent experiments. Comparisons between groups were evaluated using GraphPad Prism version 7.0 software. p < 0.05 was considered statistically significant.

[2] = tested on: human breast cancer cells (MDA-MB-231); assay: CCK-8 cell proliferation assay, MDA-MB-231; assay type: cell-based; conditions: 48 h, read-out: Inhibition rates (%) MDA-MB-231
Description: as §1, §4

[3] = tested on: normal human colonic epithelial cells (NCM460); assay: CCK-8 cell proliferation assay, NCM460; assay type: cell-based; conditions: read-out: IC50 ± SD NCM460
Description: as §2, §4

[4] = tested on: human non-small-cell lung cancer cells (A549); assay: CCK-8 cell proliferation assay, A549; assay type: cell-based; conditions: 48 h, read-out: Inhibition rates (%) A549
Description: as §1, §4

[5] = tested on: human colon cancer cells (DLD1); assay: CCK-8 cell proliferation assay, DLD1; assay type: cell-based; conditions: read-out: IC50 ± SD DLD1
Description: as §2, §3, §4

[6] = tested on: human colon cancer cells (SW620); assay: CCK-8 cell proliferation assay, SW620; assay type: cell-based; conditions: read-out: IC50 ± SD SW620
Description: as §2, §3, §4

[7] = tested on: human esophageal cancer cells (KYSE30); assay: CCK-8 cell proliferation assay, KYSE30; assay type: cell-based; conditions: KYSE-30, 48 h, read-out: Inhibition rates (%) KYSE30
Description: as §1, §4

[8] = tested on: CyclinD1, CDK6, CDK4, p-Rb in DLD1 cells; assay: Immunoblot of cell-cycle regulatory proteins, DLD1; assay type: cell-based, human; conditions: indicated concentrations, 48 h
Description: (§5) Additionally, flow cytometric analyses were performed to determine cell-cycle distribution, where 400 ng/mL of nocodazole was used to synchronize cells in G2/M phase.
(§6) When 80% confluency was reached, cells were seeded into a 6-well plate at 3 × 10^6 cells per well and allowed to attach overnight. Then, the cells were treated with different concentrations of TH12-10 or vehicle for 48 h. Cells were lysed in RIPA buffer (#89900, Thermo, Waltham, MA, USA) supplemented with protease inhibitor cocktail (#B14002, Bimake, Houston, TX, USA) on ice for 30 min and centrifuged at 12,000 rpm for 10 min at 4 °C. Protein concentration was determined by the BCA kit and equal amounts of lysates were separated by SDS-polyacrylamide gels, and transferred to nitrocellulose membranes (#HATF00010, Millipore, Burlington, MA, USA). Then, the membranes were blocked with 5% milk in TBST for 1 h and probed with the indicated antibodies. […]
(§7) Figure 3 TH12-10 blocks S phase entry. […] (D) Quantitative analysis of DLD1 cells in G1 phase as described in (C). […]

[9] = tested on: CyclinD1, CDK6, CDK4, p-Rb in SW620 cells; assay: Immunoblot of cell-cycle regulatory proteins, SW620; assay type: cell-based, human; conditions: indicated concentrations, 48 h
Description: as §5, §6, §7

DLD1 cells = assay: Flow cytometric cell-cycle distribution, DLD1; assay type: cell-based, human; conditions: 6 h after nocodazole (400 ng/mL), flow cytometry
Description: as §5
Figure 3 TH12-10 blocks S phase entry. (A) Immunoblot analysis of Cyclin D1, CDK4, CDK6, and p-Rb in SW620 and DLD1 cells treated with indicated concentrations of TH12-10 for 48 h. (B) Densitometry analysis of indicated proteins as described in (A) was performed using Image J software. […] (D) Quantitative analysis of DLD1 cells in G1 phase as described in (C). All data are presented as means ± SD of three independent experiments. * p < 0.05, ** p < 0.01, *** p < 0.001. N.S., not significant. Differences were tested using one-way ANOVA (B) or the unpaired t-test with Welch’s correction (D).

[10] = tested on: CyclinD1, CDK6, CDK4, p-Rb in NCM460 cells; assay: Immunoblot of cell-cycle regulatory proteins, NCM460; assay type: cell-based, human; conditions: indicated concentrations, 48 h
Description: as §5, §6
Figure 4 The contribution of TH12-10 to the cell cycle. […] (D) Quantitative analysis of NCM460 cells in G1 phase as described in (C). […]

[11] = NCM460, CCK-8, 48 h, normal colonic epithelial cells

SMILES | inhibition at 5 µM ([1]; HCT-116, 5 μM, CCK-8, 48 h) [%] | IC50 ([1]; HCT-116, CCK-8, 48 h) [µM] | inhibition at 5 µM [2] [%] | IC50 [3, 11] [µM] | inhibition at 5 µM [4] [%] | IC50 ([5]; DLD-1, CCK-8, 48 h) [µM] | IC50 ([6]; SW-620, CCK-8, 48 h) [µM] | inhibition at 5 µM [7] [%] | IC50 ([1]; HCT-116, 48 h) [µM] | inhibition at 5 µM ([1]; HCT-116, 48 h) [%] | IC50 ([3]; NCM460, 48 h) [µM] | IC50 ([5]; DLD-1, 48 h) [µM] | IC50 ([6]; SW-620, 48 h) [µM] | expression of CyclinD1, CDK6, CDK4 and p-Rb [8] | expression of CyclinD1, CDK6, CDK4 and p-Rb [9] | percentage of cells in the G1 phase vs blank control (DLD1 cells) | expression of CyclinD1, CDK6, CDK4 and p-Rb [10]
O=c1[nH]cc(F)c(=O)[nH]1 [5-Fu, 5-fluorouracil, reference compound] | 74.5 ± 1.1 | 0.62 ± 0.02 | 26.6 ± 2.51 | 13.6 ± 0.59 | 21.1 ± 1.79 | 7.89 ± 0.75 | 2.68 ± 0.01 | 28 ± 2.27 | – | – | – | – | – | – | – | – | –
COC1C2CC3C(C)(C)OC(CC=C(C)C(=O)O)(C2=O)C32Oc3c(CC=C(C)C)c4c(c(O)c3C(=O)C12)C=CC(C)(C)O4 (stereo not drawn) [TH12-1, Moreollic acid] | – | – | -4.9 ± 0.04 | – | 18.38 ± 0.02 | – | – | 20.76 ± 0.04 | 1.71 ± 0.33 | 83.9 ± 1.1 | 3.16 ± 0.32 | 1.44 ± 0.29 | 1.49 ± 0.37 | – | – | – | –
COC1C2CC3C(C)(C)OC(CC=C(C)C(=O)N4CCCCC4)(C2=O)C32Oc3c(CC=C(C)C)c4c(c(O)c3C(=O)C12)C=CC(C)(C)O4 (stereo not drawn) [TH12-2] | 86.1 ± 2.83 | 1.19 ± 0.25 | 0.14 ± 3.51 | 4.73 ± 0.04 | 2.51 ± 4.32 | 1.39 ± 0.19 | 1.15 ± 0.13 | 9.08 ± 2.44 | – | – | – | – | – | – | – | – | –
COC1C2CC3C(C)(C)OC(CC=C(C)C(=O)N4CCOCC4)(C2=O)C32Oc3c(CC=C(C)C)c4c(c(O)c3C(=O)C12)C=CC(C)(C)O4 (stereo not drawn) [TH12-3] | 87.4 ± 2.49 | 1.96 ± 0.2 | 1.71 ± 1.66 | 4.72 ± 0.03 | 11.6 ± 4.25 | 2.31 ± 0.23 | 1.82 ± 0.33 | 10.6 ± 2.66 | – | – | – | – | – | – | – | – | –
COC1C2CC3C(C)(C)OC(CC=C(C)C(=O)N4CCSCC4)(C2=O)C32Oc3c(CC=C(C)C)c4c(c(O)c3C(=O)C12)C=CC(C)(C)O4 (stereo not drawn) [TH12-4] | 16.3 ± 4.56 | 7.62 ± 0.93 | 3.13 ± 1.16 | 19.9 ± 0.84 | 11.1 ± 5.41 | 7.89 ± 0.12 | 7.26 ± 0.87 | 6.98 ± 1.99 | – | – | – | – | – | – | – | – | –
COC1C2CC3C(C)(C)OC(CC=C(C)C(=O)N4CCC(C)CC4)(C2=O)C32Oc3c(CC=C(C)C)c4c(c(O)c3C(=O)C12)C=CC(C)(C)O4 (stereo not drawn) [TH12-5] | – | – | 0.69 ± 1.92 | – | 14.3 ± 2.84 | – | – | 5.65 ± 3.77 | 2.37 ± 0.63 | 85.5 ± 1.45 | 5.11 ± 0.21 | 2.49 ± 0.56 | 1.97 ± 0.34 | – | – | – | –
COC1C2CC3C(C)(C)OC(CC=C(C)C(=O)N4CCC(c5ccccc5)CC4)(C2=O)C32Oc3c(CC=C(C)C)c4c(c(O)c3C(=O)C12)C=CC(C)(C)O4 (stereo not drawn) [TH12-7] | 87.1 ± 2.37 | 1.52 ± 0.14 | 2.99 ± 0.16 | 2.97 ± 0.08 | 4.59 ± 1.27 | 1.45 ± 0.25 | 1.31 ± 0.24 | -2.71 ± 0.83 | – | – | – | – | – | – | – | – | –
COC1C2CC3C(C)(C)OC(CC=C(C)C(=O)N4CCC(N5CCCC5)CC4)(C2=O)C32Oc3c(CC=C(C)C)c4c(c(O)c3C(=O)C12)C=CC(C)(C)O4 (stereo not drawn) [TH12-8] | 87.6 ± 2.76 | 1 ± 0.13 | 4.32 ± 1.96 | 2.29 ± 0.01 | 4.8 ± 0.63 | 1.05 ± 0.23 | 0.97 ± 0.1 | 4.04 ± 1.5 | – | – | – | – | – | – | – | – | –
CONC(=O)C(C)=CCC12OC(C)(C)C3CC(C1=O)C(OC)C1C(=O)c4c(O)c5c(c(CC=C(C)C)c4OC132)OC(C)(C)C=C5 (stereo not drawn) [TH12-9] | 83.9 ± 2.07 | 1.68 ± 0.26 | -1.76 ± 0.43 | 1.63 ± 0.02 | 8.54 ± 1.11 | 1.67 ± 0.7 | 1.59 ± 0.44 | 4.49 ± 1.05 | – | – | – | – | – | – | – | – | –
COC1C2CC3C(C)(C)OC(CC=C(C)C(=O)N4CCS(=O)(=O)CC4)(C2=O)C32Oc3c(CC=C(C)C)c4c(c(O)c3C(=O)C12)C=CC(C)(C)O4 (stereo not drawn) [TH12-10] | 88.1 ± 2.78 | 0.83 ± 0.1 | 8.09 ± 0.28 | 4.08 ± 0.11 | 6.85 ± 2.16 | 1.1 ± 0.19 | 0.79 ± 0.12 | 3.65 ± 2.44 | – | – | – | – | – | significantly decreased | significantly decreased | significantly higher | no significant change

Source: publication PMC8846360, “Structural Optimization and Improving Antitumor Potential of Moreollic Acid from Gamboge” (Molecules, 2022)
